In patent US20240252650A1, “LIPID COMPOUNDS AND LIPID NANOPARTICLE COMPOSITIONS” (SUZHOU ABOGEN BIOSCIENCES CO., LTD., priority 2021, published 2024):

Key:
female Balb/c mice = assay: Animal study: LNPs encapsulating luciferase mRNA, tail vein injection, organ bioluminescence imaging (IVIS Spectrum CT); type: in vivo; conditions: luciferase mRNA LNP, 0.25 mg/kg tail vein; for luciferase expression in bone marrow (in words): 6 h; for bone marrow* Avg Radiance: bone marrow at 6 h; for brain* Avg Radiance: dissected brain at 6 h; for heart* Avg Radiance: dissected heart at 6 h; for kidney* Avg Radiance: dissected kidney at 6 h; for liver* Avg Radiance: dissected liver at 6 h; for lung* Avg Radiance: dissected lung at 6 h; for spleen* Avg Radiance: dissected spleen at 6 h
Protocol: Lipid nanoparticles comprising certain compounds provided herein encapsulating luciferase encoding (luciferase) mRNA were systemically administered to 6-8 week old female Balb/c mice (Charles River Lab, ZheJiang) at 0.25 mg/kg dose by tail vein injection, and mice blood were sampled at specific time points (e.g., 6 hours) post administration. Optical imaging was performed using the IVIS Spectrum CT device (PerkinElmer Inc., Paris, France). The luminescence level was evaluated by an ROI applied to the injection site zone (Living Image software, PerkinElmer Inc., Paris, France).
Radiance of heart, liver, spleen, lung, kidney, brain and bone marrow were taken at 6 h. Dissected organs were placed on a black sheet and imaged with IVIS Spectrum CT (PerkinElmer, Hopkinton, MA). To quantify bioluminescence emission signal, identical regions of interest (ROI) were positioned to encircle each organ region, the imaging signal was quantitated as average radiance (photons/s/cm2/steradian).

[1] = Encapsulation efficiency of lipid nanoparticles (Quant-it Ribogreen RNA quantification assay); type: physicochemical
Protocol: (§1) Briefly, a cationic lipid provided herein, DSPC, cholesterol, and PEG-lipid were solubilized in ethanol at a molar ratio of 50:10:38.5:1.5, and mRNA were diluted in 10 to 50 mM citrate buffer, pH=4. The LNPs were prepared at a total lipid to mRNA weight ratio of approximately 10:1 to 30:1 by mixing the ethanolic lipid solution with the aqueous mRNA solution at a volume ratio of 1:3 using a microfluidic apparatus, total flow rate ranging from 9-30 mL/min. Ethanol were thereby removed and replaced by DPBS using dialysis. Finally, the lipid nanoparticles were filtered through a 0.2 μm sterile filter.
(§2) Lipid nanoparticle size were determined by dynamic light scattering using a Malvern Zetasizer Nano ZS (Malvern UK) using a 173° backscatter detection mode. The encapsulation efficiency of lipid nanoparticles were determined using a Quant-it Ribogreen RNA quantification assay kit (Thermo Fisher Scientific, UK) according to the manufacturer's instructions.

[2] = Apparent pKa of LNP formulations by TNS fluorescence assay; type: physicochemical; conditions: LNP cationic lipid/DSPC/cholesterol/DMG-PEG 50/10/38.5/1.5 mol %
Protocol: As reported in literature, the apparent pKa of LNP formulations correlates with the delivery efficiency of LNPs for nucleic acids in vivo. The apparent pKa of each formulation was determined using an assay based on fluorescence of 2-(p-toluidino)-6-napthalene sulfonic acid (TNS). LNP formulations comprising of cationic lipid/DSPC/cholesterol/DMG-PEG (50/10/38.5/1.5 mol %) in PBS were prepared as described above. TNS was prepared as a 300 uM stock solution in distilled water. LNP formulations were diluted to 0.1 mg/ml total lipid in 3 mL of buffered solutions containing 50 mM sodium citrate, 50 mM sodium phosphate, 50 mM sodium borate, and 30 mM sodium chloride where the pH ranged from 3 to 9. An aliquot of the TNS solution was added to give a final concentration of 0.1 mg/ml and following vortex mixing fluorescence intensity was measured at room temperature in a Molecular Devices Spectramax iD3 spectrometer using excitation and mission wavelengths of 325 nm and 435 nm. A sigmoidal best fit analysis was applied to the fluorescence data and the pKa value was measured as the pH giving rise to half-maximal fluorescent intensity.

[3] = Lipid nanoparticle size and polydispersity by dynamic light scattering (Malvern Zetasizer Nano ZS); type: physicochemical
Protocol: as §1, §2

[4] = LNP: cationic lipid/DSPC/cholesterol/PEG-lipid 50:10:38.5:1.5, mRNA, table of Example 15
[5] = LNP encapsulating hEPO mRNA, table of Example 16

Compound | Encapsulation Efficiency [1, 4] | Apparant Pka ([2]; table of Example 15) | polydispersity [3, 4] | size (nm) [3, 4] | Encapsulation Efficiency [1, 5] | Apparant Pka ([2]; table of Example 16) | polydispersity [3, 5] | size (nm) [3, 5] | luciferase expression in bone marrow (in words) (female Balb/c mice) | bone marrow* Avg Radiance (female Balb/c mice) | brain* Avg Radiance (female Balb/c mice) | heart* Avg Radiance (female Balb/c mice) | kidney* Avg Radiance (female Balb/c mice) | liver* Avg Radiance (female Balb/c mice) | lung* Avg Radiance (female Balb/c mice) | spleen* Avg Radiance (female Balb/c mice)
CCCCCCCC(=O)OCC(CCCC(=O)OCC(COC(=O)CCCCCCC)COC(=O)CCCCCCN(CCO)C1CCC1)COC(=O)CCCCCCC (stereo not drawn) [Compound 78] | 87.30% | 6.864 | 0.043 | 132 nm |  |  |  |  | mild expression | 0.51 E+04 p/s/cm^2/sr | 3.25 E+04 p/s/cm^2/sr | 3.65 E+04 p/s/cm^2/sr | 7.88 E+04 p/s/cm^2/sr | 11.41 E+06 p/s/cm^2/sr | 3.83 E+04 p/s/cm^2/sr | 2.07 E+06 p/s/cm^2/sr
C=CCN(CCO)CCCCC(=O)OCC(COC(=O)CCCCCCCCCCCCCCCCC)COC(=O)CCCC(COC(=O)CCCCCCC)COC(=O)CCCCCCC (stereo not drawn) [Compound 84] |  |  |  |  | 92.56% | 6.597 | 0.069 | 84.76 nm |  |  |  |  |  |  |  | 
CCCCCCCCCC(=O)OCC(COC(=O)CCCCCN(CCO)C1CCC1)COC(=O)CCCC(COC(=O)CCCCCCC)COC(=O)CCCCCCC (stereo not drawn) [Compound 58] |  |  |  |  | 77.87% | 6.97 | 0.129 | 104.3 nm |  |  |  |  |  |  |  | 
CCCCC/C=C\C/C=C\CCCCCCCC(=O)OCC(COC(=O)CCOC(COC(=O)CCCCCCC)COC(=O)CCCCCCC)COC(=O)OCCCN(CC)CC (stereo not drawn) [Compound 3] |  |  |  |  | 89.46% | 6.649 | 0.121 | 88.27 nm |  |  |  |  |  |  |  | 
CCCCCCCCCCC(=O)OCC(COC(=O)CCCCCN(CCO)C1CCC1)COC(=O)CCCC(COC(=O)CCCCCCC)COC(=O)CCCCCCC (stereo not drawn) [Compound 49] |  |  |  |  | 89.09% | 7.287 | 0.086 | 100.8 nm |  |  |  |  |  |  |  | 
CCCCC/C=C\C/C=C\CCCCCCCC(=O)OCC(COC(=O)CCCCCCN(CCO)C1CCC1)COC(=O)CCCC(COC(=O)CCCCCCC)COC(=O)CCCCCCC (stereo not drawn) [Compound 42] |  |  |  |  | 92.04% | 6.879 | 0.077 | 96.94 nm |  |  |  |  |  |  |  | 

The next lines start with results.

Encapsulation Efficiency [1, 4] | Apparant Pka ([2]; table of Example 15) | polydispersity [3, 4] | size (nm) [3, 4] | Encapsulation Efficiency [1, 5] | Apparant Pka ([2]; table of Example 16) | polydispersity [3, 5] | size (nm) [3, 5] | Compound | luciferase expression in bone marrow (in words) (female Balb/c mice) | bone marrow* Avg Radiance (female Balb/c mice) | brain* Avg Radiance (female Balb/c mice) | heart* Avg Radiance (female Balb/c mice) | kidney* Avg Radiance (female Balb/c mice) | liver* Avg Radiance (female Balb/c mice) | lung* Avg Radiance (female Balb/c mice) | spleen* Avg Radiance (female Balb/c mice)
87.34% | 7.194 | 0.206 | 89.95 nm |  |  |  |  | CCCCCCCCCCCCCCCCCC(=O)OCC(COC(=O)CCCC(COC(=O)CCCCCCC)COC(=O)CCCCCCC)OC(=O)CCCCN(CCO)C1CCC1 (stereo not drawn) [Compound 114] | mild expression | 0.2 E+04 p/s/cm^2/sr | 6.01 E+04 p/s/cm^2/sr | 5.49 E+04 p/s/cm^2/sr | 7.63 E+04 p/s/cm^2/sr | 21.27 E+06 p/s/cm^2/sr | 6.22 E+04 p/s/cm^2/sr | 2.7 E+06 p/s/cm^2/sr
85.39% | 6.398 | 0.037 | 87.99 nm |  |  |  |  | CCCCC/C=C\C/C=C\CCCCCCCC(=O)OCC(COC(=O)CCCC(COC(=O)CCCCCCC)COC(=O)CCCCCCC)COC(=O)OCCCN(CCOCCO)C1CCC1 (stereo not drawn) [Compound 127] | mild expression | 0.95 E+04 p/s/cm^2/sr | 3.91 E+04 p/s/cm^2/sr | 4.33 E+04 p/s/cm^2/sr | 10.77 E+04 p/s/cm^2/sr | 13.01 E+06 p/s/cm^2/sr | 9.38 E+04 p/s/cm^2/sr | 4.76 E+06 p/s/cm^2/sr
91.87% | 6.154 | 0.039 | 71.38 nm |  |  |  |  | CCCCC/C=C\C/C=C\CCCCCCCC(=O)OCC(COC(=O)CCC(OCCCCCCCC)OCCCCCCCC)COC(=O)OCCCN(CCO)C1CCCCC1 (stereo not drawn) [Compound 126] |  | −1.44 E+04 p/s/cm^2/sr | 10.48 E+04 p/s/cm^2/sr | 23.71 E+04 p/s/cm^2/sr | 29.29 E+04 p/s/cm^2/sr | 54.3 E+06 p/s/cm^2/sr | 15.58 E+04 p/s/cm^2/sr | 0.73 E+06 p/s/cm^2/sr
92.40% | 6.881 | 0.049 | 78.48 nm |  |  |  |  | CCCCC/C=C\C/C=C\CCCCCCCC(=O)OCC(COC(=O)CCCCN(CCO)C1CCC1)COC(=O)CCC(OCCCCCCCC)OCCCCCCCC (stereo not drawn) [Compound 116] |  | −0.16 E+04 p/s/cm^2/sr | 13.52 E+04 p/s/cm^2/sr | 12.65 E+04 p/s/cm^2/sr | 28.62 E+04 p/s/cm^2/sr | 40.56 E+06 p/s/cm^2/sr | 17.29 E+04 p/s/cm^2/sr | 1.38 E+06 p/s/cm^2/sr
87.05% | 6.477 | 0.033 | 138.5 nm |  |  |  |  | CCCCC/C=C\C/C=C\CCCCCCCC(=O)OCC(COC(=O)CCCCN(CCCCCCCO)C1CCC1)COC(=O)CCCC(COC(=O)CCCCCCC)COC(=O)CCCCCCC (stereo not drawn) [Compound 129] | mild expression | 2.12 E+04 p/s/cm^2/sr | 12.49 E+04 p/s/cm^2/sr | 13.05 E+04 p/s/cm^2/sr | 17.53 E+04 p/s/cm^2/sr | 30.05 E+06 p/s/cm^2/sr | 11 E+04 p/s/cm^2/sr | 6.57 E+06 p/s/cm^2/sr
87.71% | 6.863 | 0.025 | 83.81 nm |  |  |  |  | CCCCC/C=C\C/C=C\CCCCCCCC(=O)OCC(COC(=O)CCCCN(CCOCCO)C1CCC1)COC(=O)CCCC(COC(=O)CCCCCCC)COC(=O)CCCCCCC (stereo not drawn) [Compound 125] |  | −0.94 E+04 p/s/cm^2/sr | 4.61 E+04 p/s/cm^2/sr | 5.27 E+04 p/s/cm^2/sr | 8.4 E+04 p/s/cm^2/sr | 16.61 E+06 p/s/cm^2/sr | 7.67 E+04 p/s/cm^2/sr | 2.24 E+06 p/s/cm^2/sr
 |  |  |  | 77.94% | 6.091 | 0.01154 | 77.71 nm | CCCCC/C=C\C/C=C\CCCCCCCC(=O)OCC(COC(=O)CCCC(COC(=O)CCCCCCC)COC(=O)CCCCCCC)COC(=O)OCCCN(CCO)C1CCCCC1 (stereo not drawn) [Compound 106] |  |  |  |  |  |  |  | 
 |  |  |  | 83.41% | 7.14 | 0.207 | 102.92 nm | CCCCCCCCCCCCCCCCCC(=O)OCC(COC(=O)CCCCN(CCC)CCO)COC(=O)CCC(=O)OCC(COC(=O)CCCCCCC)COC(=O)CCCCCCC (stereo not drawn) [Compound 98] |  |  |  |  |  |  |  | 
 |  |  |  | 89.87% | 6.707 | 0.02612 | 98.52 nm | CCCCCCCCOC(=O)CCCCCCCC(=O)OCC(COC(=O)CCCCN(CCO)C1CCCCC1)COC(=O)CCCC(COC(=O)CCCCCCC)COC(=O)CCCCCCC (stereo not drawn) [Compound 104] |  |  |  |  |  |  |  | 
 |  |  |  | 86.02% | 5.811 | 0.023 | 72.66 nm | CCCCCCCC(=O)OCC(CCCC(=O)OCC(COC(=O)CCCC(COC(=O)CCCCCCC)COC(=O)CCCCCCC)COC(=O)OCCN(C)CCO)COC(=O)CCCCCCC [Compound 91] |  |  |  |  |  |  |  | 
